Values quoted from earlier work, collected in US12156872B2, “Combination therapies for treating cancer” (TESARO, Inc., priority 2017, dated 2024).
Like-named read-outs stand apart in the source and are kept apart here.

Assays:
OC = settings: single agent
[1] = tested on: non-small-cell lung cancer, melanoma, and renal-cell cancer; settings: Phase I clinical trial
TNBC = settings: single agent, previously treated TNBC
[2] = tested on: Ewing's sarcoma, ALL, NSCLC, SCLC cell lines and tumor cell lines with homozygous inactivation of the ATM gene
PARP = settings: hydrogen peroxide stimulated, various cell lines
[3] = tested on: MDA-MB-436, CAPAN-1, GRANTA-519, OVCAR3, HT29, DLD-1, patient derived Ewing's sarcoma and TNBC xenograft models; settings: xenograft models in mice
[4] = tested on: cancer cell lines silenced for BRCA-1 or BRCA-2, or carrying BRCA-1 or BRCA-2 mutations

Question: With “nivolumab: PD-1 antibody (Human IgG4), Bristol-Myers Squibb / ONO” as the molecule, how does the “objective response rate (ORR)” value (OC) read?
Answer: 15%

Question: What about the clinical response [1] of the same molecule?
Answer: complete or partial responses

Question: With “pembrolizumab: anti-PD-1 monoclonal antibody, immunoglobulin G4/kappa isotype humanized mAb (SEQ ID NO: 1 and 2)” as the molecule, how does the “objective response rate (ORR)” value (TNBC) read?
Answer: 4.7%

Question: With `NC(=O)c1cccc2cn(-c3ccc([C@@H]4CCCNC4)cc3)nc12` [niraparib, (3S)-3-[4-{7-(aminocarbonyl)-2H-indazol-2-yl}phenyl]piperidine] as the molecule, how does the cytotoxicity [2] read?
Answer: selectively cytotoxic

Question: What about the antitumor activity [3] of the same molecule?
Answer: strong antitumor activity

Question: And the “activity on normal human cells” value (normal human cells)?
Answer: weak activity

Question: What about the cell cycle effect [4] of the same molecule?
Answer: cell cycle arrest in G2/M followed by apoptosis

Question: What about the anti-proliferative activity ([4]; compared to wild type counterparts) of the same molecule?
Answer: selective anti-proliferative activity

Question: And the cell cycle effect ([4]; listed as Niraparib)?
Answer: arrest in the G2/M phase of the cell cycle
